Data set [1] relates to LNCaP cells. The experiment in a line: PSMA-mediated internalization into LNCaP cells. The following applies: 1 h, 37° C., percentage of reference ligand ([125I]BA)KuE, n=3. The class given is cell-based. The procedure:
(§1) Competitive binding studies were determined on LNCaP cells (1.5×10^5 cells in 1 mL/well) after incubation at 4° C. for 1 h, using (((S)-1-carboxy-5-(4-([^125I]iodo)benzamido)pentyl)carbamoyl)-L-glutamic acid ([^125I]BA)KuE; 0.2 nM/well) as reference radioligand (n=3). Internalization studies of the radiolabeled ligands (1.0 nM/well) were performed on LNCaP cells (1.25×10^5 cells in 1 mL/well) at 37° C. for 1 h and accompanied by ([^125I]BA)KuE (0.2 nM/well), as reference. Data were corrected for non-specific binding and normalized to the specific internalization observed for the reference (n=3). A detailed description of the experimental procedures was previously published (Wurzer A, et al. J Nucl Med. 2020; 61: 735-742).

Data set [2] addresses T1, human serum albumin (Homo sapiens, UniProt P02768).
T1 construct: purchased Biowest, Nuaillé, France
As to the kind of experiment: Binding to human serum albumin by albumin mediated size exclusion chromatography (AMSEC). The class given is in vitro ADME. The following applies: size exclusion chromatography with HSA in the mobile phase, 177Lu-labeled. The procedure: Binding of ^177Lu-labeled ligands to HSA was assessed by albumin mediated size exclusion chromatography (AMSEC). A gel filtration size exclusion column (Superdex 75 Increase 10/300 GL, GE Healthcare, Uppsala, Sweden) was used with HSA buffer at physiological concentration (700 μM, Biowest, Nuaillé, France) as mobile phase (constant flow rate of 0.8 mL/min at room temperature). For calibration purposes, a commercially available set of proteins (GE Healthcare, Buckinghamshire, UK) was used. Under these chromatographic conditions, the retention time of a radioligand (1.0 MBq, 10-20 GBq/μmol) depends on the extent of HSA/ligand interactions and thus, by means of the calibration with the aforementioned set of proteins, can be translated into an AMW (expressed in kDa) as a parameter allowing to quantify the extent of HSA binding. The detection window ranges between 2.3 kDa ([^18F]Fluoride; no HSA interaction) and 70.2 kDa (experimental molecular weight of HSA; maximum HSA interaction).

In data set [3] the target is T2, PSMA (Homo sapiens, UniProt Q04609).
T2 construct: endogenous in cells; host or cells: LNCaP cells
T2 sequence (Q04609 whole entry): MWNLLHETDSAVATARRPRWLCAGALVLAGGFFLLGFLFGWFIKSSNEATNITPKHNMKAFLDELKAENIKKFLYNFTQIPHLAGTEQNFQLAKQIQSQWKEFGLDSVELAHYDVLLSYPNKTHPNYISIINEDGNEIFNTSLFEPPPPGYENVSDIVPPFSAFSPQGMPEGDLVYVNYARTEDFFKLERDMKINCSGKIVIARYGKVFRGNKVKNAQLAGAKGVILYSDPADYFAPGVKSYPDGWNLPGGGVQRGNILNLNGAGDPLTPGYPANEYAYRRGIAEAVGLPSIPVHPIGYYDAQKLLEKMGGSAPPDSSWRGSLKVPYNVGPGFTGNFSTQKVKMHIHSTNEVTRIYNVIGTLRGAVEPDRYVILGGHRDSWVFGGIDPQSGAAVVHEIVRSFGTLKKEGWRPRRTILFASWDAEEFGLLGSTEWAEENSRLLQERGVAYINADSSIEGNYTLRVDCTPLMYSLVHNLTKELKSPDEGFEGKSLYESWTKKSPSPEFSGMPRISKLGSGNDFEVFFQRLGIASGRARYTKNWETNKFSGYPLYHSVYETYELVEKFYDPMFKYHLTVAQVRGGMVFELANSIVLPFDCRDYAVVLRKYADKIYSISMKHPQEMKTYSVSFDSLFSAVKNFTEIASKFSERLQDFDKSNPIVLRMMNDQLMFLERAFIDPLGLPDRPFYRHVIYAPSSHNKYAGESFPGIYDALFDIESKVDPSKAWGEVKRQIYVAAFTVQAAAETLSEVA
The experiment in a line: Competitive binding studies on LNCaP cells vs ([125I]BA)KuE (affinity, IC50). The following applies: 1 h, 4° C., natLu complexes. On the procedure: as §1

Data set [4] can be described thus: Lipophilicity, n-octanol/PBS (pH 7.4) distribution. The class given is physicochemical. The following applies: n-octanol/PBS pH 7.4, 177Lu-labeled, n=6. The procedure:
Approximately 1 MBq of the ^177Lu-labeled PSMA ligand was dissolved in 1 mL of a 1:1 mixture (v/v) of phosphate-buffered saline (PBS, pH 7.4) and n-octanol (n=6). After vigorous mixing of the suspension for 3 min, the vial was centrifuged at 15000×g for 3 min and 100 μL aliquots of both layers were measured in a γ-counter. Finally, the ratio of the radioactivity detected in the n-octanol sample and the PBS buffer was calculated and expressed as distribution ratio log D7.4.

The test system of data set [5] is LNCaP tumor-bearing male CB-17 SCID mice. The experiment in a line: Ex vivo biodistribution in LNCaP tumor-bearing CB-17 SCID mice. The conditions noted are these: 24 h p.i. On the procedure:
All animal experiments were conducted in accordance with general animal welfare regulations in Germany (German animal protection act, as amended on 18 May 2018, Art. 141 G v. 29 Mar. 2017 I 626, approval no. 55.2-1-54-2532-71-13) and the institutional guidelines for the care and use of animals. LNCaP tumor xenografts were established in 6-8 weeks old male CB-17 SCID mice as described previously (Wurzer A, et al. J Nucl Med. 2020; 61: 735-742). Biodistribution Studies. The ^177Ludabeled PSMA inhibitors (2-5 MBq; 0.1 nmol) were injected under isoflurane anesthesia into the tail vein of LNCaP tumor-bearing male CB-17 SCID mice that were sacrificed 24 h post injection (p.i.) (n=4-5). Selected organs were removed, weighed, and measured in a counter. All rhPSMA ligands were evaluated in mice during the same time period (Q1/2020), whereas ^177Ludabeled PSMA-617 and PSMA I&T (Wirtz M, et al. EJNMMI Res. 2018; 8: 84) were assessed previously using the identical cell line, mouse model and experimental procedure.

Several values for one entry are separate records, joined by “and”; a condition that tells them apart may be missing. Equal entries are not always repeated.

T1 sequence (P02768 25-609): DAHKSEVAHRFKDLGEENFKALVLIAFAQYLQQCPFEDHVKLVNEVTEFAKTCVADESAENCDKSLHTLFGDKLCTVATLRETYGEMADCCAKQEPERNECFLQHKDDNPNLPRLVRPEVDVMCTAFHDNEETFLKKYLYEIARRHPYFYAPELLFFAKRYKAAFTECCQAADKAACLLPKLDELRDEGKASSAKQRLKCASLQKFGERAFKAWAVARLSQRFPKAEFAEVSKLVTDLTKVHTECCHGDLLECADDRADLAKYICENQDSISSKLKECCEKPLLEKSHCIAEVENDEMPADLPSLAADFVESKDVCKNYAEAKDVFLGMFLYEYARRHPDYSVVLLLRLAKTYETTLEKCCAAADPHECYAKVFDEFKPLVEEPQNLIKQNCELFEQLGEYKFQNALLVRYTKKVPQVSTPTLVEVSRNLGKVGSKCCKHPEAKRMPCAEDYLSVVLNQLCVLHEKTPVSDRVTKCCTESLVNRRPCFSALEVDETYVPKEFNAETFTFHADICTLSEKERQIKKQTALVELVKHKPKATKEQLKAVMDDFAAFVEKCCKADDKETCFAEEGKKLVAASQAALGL

In the case of `CC(C)(C)[Si](F)(c1ccc(C(=O)NC[C@@H](NC(=O)CC[C@H](C(=O)O)N2CCN(CC(=O)[O-])CCN(CC(=O)[O-])CCN(CC(=O)[O-])CC2)C(=O)N[C@H](CCCCNC(=O)CCC(=O)NCCC[C@@H](NC(=O)CC[C@H](NC(=O)N[C@@H](CCC(=O)O)C(=O)O)C(=O)O)C(=O)O)C(=O)O)cc1)C(C)(C)C.[Lu+3]` [[^177Lu, ^19F]rhPSMA-7.1], in data set [1], the “Internalization [% IBA-KuE]” value was 137±6 % IBA-KuE and 137.4 ± 5.8 % IBA-KuE. In addition, the “MWapp [kDa] (apparent molecular weight, AMW; HSA binding)” value (shortened to “MWapp [kDa]”) in data set [2] came to 26.3 kDa. This compound showed an IC50 in data set [3] (n=3) of 3.11 ± 0.64 nM. In data set [4], this compound came in with a logD7.4 of −4.27 ± 0.24.
For the compound `CC(C)(C)[Si](F)(c1ccc(C(=O)NC[C@H](NC(=O)CC[C@H](C(=O)O)N2CCN(CC(=O)[O-])CCN(CC(=O)[O-])CCN(CC(=O)[O-])CC2)C(=O)N[C@H](CCCCNC(=O)CCC(=O)NCCC[C@@H](NC(=O)CC[C@H](NC(=O)N[C@@H](CCC(=O)O)C(=O)O)C(=O)O)C(=O)O)C(=O)O)cc1)C(C)(C)C.[Lu+3]` [[^177Lu, ^19F]rhPSMA-7.2], the “Internalization [% IBA-KuE]” value in data set [1] is 197.3 ± 15.0 % IBA-KuE. Moreover, in data set [2], the “MWapp [kDa]” value was 31.7 kDa. In data set [3] (n=3), the half-inhibitory concentration (IC50) came to 2.88 ± 1.06 nM. This compound also displayed a logD7.4 in data set [4] of −4.25 ± 0.29.
For the compound `CC(C)(C)[Si](F)(c1ccc(C(=O)NC[C@@H](NC(=O)CC[C@@H](C(=O)O)N2CCN(CC(=O)[O-])CCN(CC(=O)[O-])CCN(CC(=O)[O-])CC2)C(=O)N[C@H](CCCCNC(=O)CCC(=O)NCCC[C@@H](NC(=O)CC[C@H](NC(=O)N[C@@H](CCC(=O)O)C(=O)O)C(=O)O)C(=O)O)C(=O)O)cc1)C(C)(C)C.[Lu+3]` [[^177Lu, ^19F]rhPSMA-7.3], the “Internalization [% IBA-KuE]” value in data set [1] came out at 184.4 ± 11.8 % IBA-KuE. For the same compound, the “MWapp [kDa]” value in data set [2] came to 30.4 kDa. Besides, the half-maximal inhibitory concentration (IC50) in data set [3] (n=3) was found to be 3.29 ± 1 nM. In data set [5] (n=5, mean of ratios per mouse), the Tumor-to-organ ratio adrenals was determined as 44.34, the Tumor-to-organ ratio blood is 4255, the Tumor-to-organ ratio bone is on record as 625.98 and the Tumor-to-organ ratio heart was determined as 542.49. For the same compound, in data set [5] (n=5, mean of ratios per mouse), the Tumor-to-organ ratio intestine is 254.02, the Tumor-to-organ ratio kidney came out at 1.64, the Tumor-to-organ ratio liver came out at 78.11 and the Tumor-to-organ ratio lung is 239.97. In addition, in data set [5] (n=5, mean of ratios per mouse), the Tumor-to-organ ratio muscle was 2123.58, the Tumor-to-organ ratio pancreas is 754.34, the “Tumor-to-organ ratio parotid gl.” value came to 176.66 and the Tumor-to-organ ratio spleen turned out to be 34.32. In data set [5] (n=5, mean of ratios per mouse), the Tumor-to-organ ratio stomach was 453.70 and the “Tumor-to-organ ratio submand. gl.” value stood at 290.08. Besides, the Tumor-to-organ ratio blood in data set [5] (n=5, mean of ratios per mouse, listed as [^177Lu]rhPSMA-7.3) was 4255.56. Further, in data set [5] (n=5, mean, complete dataset), the Activity accumulation adrenals is recorded as 0.4233 % ID/g, the Activity accumulation blood turned out to be 0.0046 % ID/g, the Activity accumulation bone is recorded as 0.0307 % ID/g and the Activity accumulation heart is reported as 0.0333 % ID/g. Also, in data set [5] (n=5, mean, complete dataset), the Activity accumulation intestine was determined as 0.1001 % ID/g, the Activity accumulation kidney amounted to 11.4±1.4 % ID/g, the Activity accumulation liver is reported as 0.2352 % ID/g and the Activity accumulation lung amounted to 0.0768 % ID/g. Moreover, in data set [5] (n=5, mean, complete dataset), the Activity accumulation muscle is given as 0.0094 % ID/g, the Activity accumulation pancreas was determined as 0.0241 % ID/g, the “Activity accumulation parotid gl.” value is reported as 0.1068 % ID/g and the Activity accumulation spleen stood at 0.5817 % ID/g. For the same compound, in data set [5] (n=5, mean, complete dataset), the Activity accumulation stomach stood at 0.0434 % ID/g and the “Activity accumulation submand. gl.” value stood at 0.0644 % ID/g. The compound also yielded an Activity accumulation tumor in data set [5] (n=5, mean, complete dataset, LNCaP tumor) of 18.1740 % ID/g. This compound also registered an Activity accumulation kidney in data set [5] (n=5, mean, complete dataset, listed as [^177Lu]rhPSMA-7.3) of 11.3738 % ID/g. The logD7.4 in data set [4] is −4.12 ± 0.11.
With `CC(C)(C)[Si](F)(c1ccc(C(=O)NC[C@H](NC(=O)CC[C@@H](C(=O)O)N2CCN(CC(=O)[O-])CCN(CC(=O)[O-])CCN(CC(=O)[O-])CC2)C(=O)N[C@H](CCCCNC(=O)CCC(=O)NCCC[C@@H](NC(=O)CC[C@H](NC(=O)N[C@@H](CCC(=O)O)C(=O)O)C(=O)O)C(=O)O)C(=O)O)cc1)C(C)(C)C.[Lu+3]` [[^177Lu, ^19F]rhPSMA-7.4], the “Internalization [% IBA-KuE]” value in data set [1] came to 190.4 ± 10.5 % IBA-KuE. Besides, the “MWapp [kDa]” value in data set [2] came out at 35.7 kDa. In data set [3] (n=3), the IC50 came to 3.06 ± 1.51 nM. The compound further returned a logD7.4 in data set [4] of −4.10 ± 0.14.
Turning to `O=C([O-])CN1CCN(CC(=O)[O-])CCN(CC(=O)NCC2CCC(C(=O)N[C@@H](Cc3ccc4ccccc4c3)C(=O)NCCCC[C@H](NC(=O)N[C@@H](CCC(=O)O)C(=O)O)C(=O)O)CC2)CCN(CC(=O)[O-])CC1.[177Lu+3]` (stereo partly shown) [[^177Lu]PSMA-617], the “Internalization [% IBA-KuE]” value in data set [1] was 203±10 % IBA-KuE and 203.2 ± 10.1 % IBA-KuE. The “MWapp [kDa]” value in data set [2] was 13.7 kDa. In addition, the IC50 stood at 3.27 ± 0.19 nM in data set [3] (n=3) and 3.3 ± 0.2 nM in data set [3] (n=3, listed as [^natLu]PSMA-617). In data set [4], this compound registered a logD7.4 of −4.1 ± 0.1.

Usually IC50 stands for the concentration at which inhibition is half-maximal.
